# “Also recorded” adds a separate entry of the source.
# Assays:
# [1] = target: T1, human alpha4beta2 nAChRs (Homo sapiens, UniProt P17787+P43681); experiment: Positive allosteric modulation of agonist-evoked currents, two-electrode voltage clamp in Xenopus oocytes (Example 1); assay type: cell-based
# T1 construct: expressed in transfected cells; host or cells: Xenopus laevis oocytes (cDNA injection)
# Method: • Acetylcholine chloride • 100 mM stock solution in bi-distilled water 1.3 Test system • Apparatus: Automated Injection and Recording Apparatus, HiQScreen • Species of donor animals: Xenopus • Strain of animals: Laevis • Origin (supplier) of animals: HiQScreen Sàrl, Geneva • Body Weight of animals: 150 g to 300 g • Animal maintenance 3 to 5 per vivarium • Room temperature: 20-22° C. • Lighting times: Vivarium were exposed to daylight with additional artificial lighting (6 am-8 pm in summer; 8 am-7 pm in winter). • Food: Food pellets, ad libitum • Source of biological material • and isolation procedure: Abdominal incision to remove ovaries • Experimental conditions in Oocyte incubation: Barth solution containing in mM NaCl 88, • vitro: […] OR2 medium containing in mM: […] Two-electrode voltage clamp, using proprietary automated system equipped with a Geneclamp amplifier (Axon Instrument, Foster City, Calif., USA), or HiClamp (Multichannel Systems, Germany) Abbreviations: Ach, Acetylcholine; nAChR, Nicotinic acetylcholine receptor; SEM, Standard error of the mean; PAM, Positive allosteric modulator All experiments were carried out at human nAChRs expressed in Xenopus oocytes using the method of cDNA expression. Xenopus oocytes were prepared and injected using standard procedures. Briefly, ovaries were harvested from Xenopus Laevis females that have been deeply anesthetized by cooling at 4° C. and Tricaine methanesulfonate (MS-222 at a concentration of 150 mg/L) in sodium bicarbonate (300 mg/L). Once anesthetized the animal was decapitated and pithed following the rules of animal rights from the Geneva canton. […] All recordings were performed at 18° C. and cells superfused with OR2 medium containing in mM: […] Currents evoked by ACh or other agonists were recorded using an automated process equipped with standard two-electrode voltage-clamp configuration (TEVC). Data were captured and analyzed using a HiQScreen proprietary data acquisition and analysis software running under Matlab (Mathworks Inc.). […] Compounds were dissolved in OR2 as stock solution (1 mM) and the final dilution to the desired concentration was made on the day of the experiment. Injections of cDNAs encoding for the human alpha4beta2, were performed in at least 95 oocytes were performed using a proprietary automated injection device (Hogg et al., J. Neurosci. Methods, 2008) and receptor expression examined at least two days later. Oocytes were poked with two electrodes and their membrane potential maintained, unless indicated, at −80 mV throughout the experiment. A protocol to determine the allosteric modulation at the alpha4beta2 nAChRs in the oocytes expressing the receptor was developed. Oocytes expressing alpha4beta2 nAChRs were exposed to increasing concentrations of ACh while the response was evaluated. This was repeated with the addition of a fixed concentration of the allosteric modulator. The current evoked from the exposure to the agonist with the modulator was recorded and compared to currents evoked in the absence of the modulator. To assess the effects of positive allosteric modulators (Br-PBTC and NS-9283) a protocol of determination of the concentration activation curve in absence and presence of the PAM was designed. […] To assess the positive allosteric modulator effects of NS-9283 at the compound 1 hemi-galactarate dihydrate the same experimental protocol was conducted using 1 μM of the modulator. […] To further evaluate the PAM effects, the modulation was measured either as a first application and compared versus the subsequent agonist evoked response or, vice versa, by first exposing the cell to the agonist alone and then to the PAM and the agonist applied during a sustained PAM exposure. […] The same experiment was then conducted for compound 1 hemi-galactarate dihydrate as the agonist and Br-PBTC as the modulator or NS-9283 as the modulator.
# [2] = target: T1, human alpha4beta2 nAChRs; experiment: Desensitization by sustained (1 hour) agonist exposure and recovery, without and with PAM, Xenopus oocytes (Example 1); assay type: cell-based
# [3] = presence vs absence of 1 μM PAM
# T1 sequence (P43681 29-627 limits assumed): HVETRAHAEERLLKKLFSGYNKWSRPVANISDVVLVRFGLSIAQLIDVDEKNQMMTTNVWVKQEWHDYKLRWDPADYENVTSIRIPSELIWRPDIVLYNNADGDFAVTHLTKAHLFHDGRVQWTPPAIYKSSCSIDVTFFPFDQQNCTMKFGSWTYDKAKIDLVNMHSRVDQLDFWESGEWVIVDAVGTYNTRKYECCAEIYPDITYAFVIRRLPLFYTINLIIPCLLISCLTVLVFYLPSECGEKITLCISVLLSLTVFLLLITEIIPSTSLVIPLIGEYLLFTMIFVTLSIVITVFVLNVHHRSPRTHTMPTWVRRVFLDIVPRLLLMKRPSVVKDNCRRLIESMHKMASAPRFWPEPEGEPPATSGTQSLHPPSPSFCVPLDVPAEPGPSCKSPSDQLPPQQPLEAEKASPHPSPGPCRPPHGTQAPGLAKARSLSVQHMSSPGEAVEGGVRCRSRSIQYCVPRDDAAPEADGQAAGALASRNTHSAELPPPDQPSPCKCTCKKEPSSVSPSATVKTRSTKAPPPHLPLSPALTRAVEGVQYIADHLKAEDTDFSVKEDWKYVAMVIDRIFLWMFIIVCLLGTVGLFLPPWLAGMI
# T1 sequence (P17787 26-502): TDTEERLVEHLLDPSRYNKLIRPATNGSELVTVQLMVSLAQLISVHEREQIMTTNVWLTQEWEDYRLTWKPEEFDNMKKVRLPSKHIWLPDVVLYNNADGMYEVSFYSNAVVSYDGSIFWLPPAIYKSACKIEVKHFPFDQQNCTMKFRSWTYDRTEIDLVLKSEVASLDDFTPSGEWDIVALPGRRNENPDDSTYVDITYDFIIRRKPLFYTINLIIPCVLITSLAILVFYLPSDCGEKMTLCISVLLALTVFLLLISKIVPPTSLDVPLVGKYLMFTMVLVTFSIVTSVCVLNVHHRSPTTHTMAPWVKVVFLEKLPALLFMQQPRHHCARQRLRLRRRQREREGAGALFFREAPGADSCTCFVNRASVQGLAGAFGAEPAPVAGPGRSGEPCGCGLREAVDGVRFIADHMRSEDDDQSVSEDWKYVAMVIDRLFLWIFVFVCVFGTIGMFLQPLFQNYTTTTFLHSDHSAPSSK
structure (smiles),measurement,setting,value
"O=C(N[C@@H]1CCCNC1)c1cc2cccc(Br)c2s1 [Br-PBTC, (R)-7-bromo-N-(piperidin-3-yl)benzo[b]thiophene-2-carboxamide]",positive allosteric modulator activity in the presence of compound 1 hemi-galactarate dihydrate,[1]; 1 μM PAM,acts as a positive modulator; also recorded: potentiate the agonistic activity
same,dependence of potentiation on the order of agonist and PAM application,[1]; agonist compound 1 hemi-galactarate dihydrate,independent on the exposure protocol
same,maximal current evoked by compound 1 hemi-galactarate dihydrate,[1]; [3],increase of the maximal evoked current; also recorded: increase of the amplitude of the current
same,shift of the concentration activation curve to compound 1 hemi-galactarate dihydrate,[1]; [3],significant shift to the left; also recorded: shifted to the left
same,effect of PAM on recovery from varenicline tartrate desensitization,"[2]; 300 μM varenicline tartrate 1 hour, 1 μM PAM, wash of 3 hours",almost complete recovery within 3 hours; also recorded: almost full recovery; also recorded: partially reversed
same,effect of PAM on amplitude of the current evoked by varenicline tartrate,"[2]; 300 μM varenicline tartrate, 1 μM PAM",largely enhanced
same,effect of PAM on profile of compound 1 hemi-galactarate dihydrate desensitization and recovery,"[2]; 1 mM agonist, co-application of 1 μM modulator",minimal effect

# From patent US20210379066A1, “COMBINATIONS OF POSITIVE ALLOSTERIC MODULATORS AND NICOTINIC ACETYLCHOLINE RECEPTOR AGONISTS FOR TREATING OCULAR CONDITIONS” (Oyster Point Pharma, Inc., priority 2018, published 2021)
